Patent US9120804B2, “8-substituted 2-amino-[1,2,4] triazolo [1, 5-A] pyrazines as Syk tryrosine kinase inhibitors and GCN2 serin kinase inhibitors” (Merck Patent GmbH, priority 2012, dated 2015)

Experiments:
GCN2 = GCN2 (Homo sapiens, UniProt Q9P2K8); experiment: GCN2 enzyme assay; format: biochemical
SYK = biological target: T1, SYK (Homo sapiens, UniProt P43405); experiment: SYK flash plate assay (enzyme assay); format: biochemical
T1 construct: 2.5 nM SYK, 400 nM Biotin-Aha-Aha-KEDPDYEWPSAKK
Procedure, shortened: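 Radiometric Flashplate format: biotinylated peptide substrate (400 nM) and 33P-labelled ATP (10 μM) react with 2.5 nM enzyme for 1 hour at 30 °C in Hepes buffer, pH 7.5. After EDTA quench and washing, counts are taken; staurosporine defines non-specific signal, and IC50 values are derived.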

Chain of GCN2 (Q9P2K8 whole entry): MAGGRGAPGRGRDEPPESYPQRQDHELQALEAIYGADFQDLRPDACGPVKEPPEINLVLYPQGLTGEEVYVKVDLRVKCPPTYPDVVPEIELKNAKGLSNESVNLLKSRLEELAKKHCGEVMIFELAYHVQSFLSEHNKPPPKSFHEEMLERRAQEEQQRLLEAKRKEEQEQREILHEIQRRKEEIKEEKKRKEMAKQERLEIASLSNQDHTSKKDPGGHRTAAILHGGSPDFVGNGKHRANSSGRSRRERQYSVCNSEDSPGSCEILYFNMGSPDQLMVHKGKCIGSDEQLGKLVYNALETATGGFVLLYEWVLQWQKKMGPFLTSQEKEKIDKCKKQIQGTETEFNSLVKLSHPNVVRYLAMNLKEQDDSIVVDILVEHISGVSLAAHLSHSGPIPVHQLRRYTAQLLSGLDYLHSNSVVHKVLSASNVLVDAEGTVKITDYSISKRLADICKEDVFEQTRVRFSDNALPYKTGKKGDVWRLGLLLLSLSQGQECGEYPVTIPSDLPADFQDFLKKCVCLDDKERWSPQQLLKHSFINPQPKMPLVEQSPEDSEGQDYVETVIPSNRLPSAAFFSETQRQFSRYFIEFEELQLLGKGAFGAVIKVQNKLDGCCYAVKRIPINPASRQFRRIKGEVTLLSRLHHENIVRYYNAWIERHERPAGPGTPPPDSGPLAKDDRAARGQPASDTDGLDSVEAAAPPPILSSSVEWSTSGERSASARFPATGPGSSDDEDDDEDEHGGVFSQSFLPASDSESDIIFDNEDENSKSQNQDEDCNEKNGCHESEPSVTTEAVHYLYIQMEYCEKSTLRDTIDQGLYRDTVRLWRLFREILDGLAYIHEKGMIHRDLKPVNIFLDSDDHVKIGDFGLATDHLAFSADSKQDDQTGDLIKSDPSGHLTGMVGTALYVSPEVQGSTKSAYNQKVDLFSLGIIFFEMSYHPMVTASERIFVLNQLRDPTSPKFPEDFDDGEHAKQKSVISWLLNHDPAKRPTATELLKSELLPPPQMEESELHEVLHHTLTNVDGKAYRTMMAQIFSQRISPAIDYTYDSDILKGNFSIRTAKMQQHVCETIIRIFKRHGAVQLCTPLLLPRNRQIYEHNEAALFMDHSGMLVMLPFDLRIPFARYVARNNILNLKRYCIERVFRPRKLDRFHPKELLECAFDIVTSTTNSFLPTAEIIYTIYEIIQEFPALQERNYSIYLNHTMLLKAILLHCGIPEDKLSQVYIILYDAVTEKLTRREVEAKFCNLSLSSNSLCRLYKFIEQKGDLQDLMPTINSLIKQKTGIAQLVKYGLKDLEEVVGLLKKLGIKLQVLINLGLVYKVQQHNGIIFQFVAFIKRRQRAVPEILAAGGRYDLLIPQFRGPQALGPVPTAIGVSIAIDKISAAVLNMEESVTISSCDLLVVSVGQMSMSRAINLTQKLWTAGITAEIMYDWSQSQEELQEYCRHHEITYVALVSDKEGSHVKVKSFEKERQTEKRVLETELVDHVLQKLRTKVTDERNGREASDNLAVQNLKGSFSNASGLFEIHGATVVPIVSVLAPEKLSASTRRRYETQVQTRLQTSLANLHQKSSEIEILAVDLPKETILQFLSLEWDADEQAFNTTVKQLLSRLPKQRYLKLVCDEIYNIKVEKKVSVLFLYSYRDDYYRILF

IC50 (GCN2) [µM] | IC50 (SYK) [µM] | SMILES
0.3 to 3 | < 0.1 | Cn1cc(-c2nccn3nc(Nc4ccc5c(C(C)(C)O)n[nH]c5c4)nc23)cn1 [C72, 2-{6-[8-(1-methyl-1H-pyrazol-4-yl)-[1,2,4]triazolo[1,5-a]pyrazin-2-ylamino]-1H-indazol-3-yl}-propan-2-ol]
0.3 to 3 | 0.1 to 0.3 | CN(C)Cc1nc2ccc(Nc3nc4c(-c5cnn(C)c5)nccn4n3)cc2[nH]1 [C33, (2-Dimethylaminomethyl-3H-benzoimidazol-5-yl)-[8-(1-methyl-1H-pyrazol-4-yl)-[1,2,4]triazolo[1,5-a]pyrazin-2-yl]-amine]
0.3 to 3 | 0.1 to 0.3 | Cc1nn(C)cc1-c1nccn2nc(Nc3ccc4c(c3)NC(=O)C4(C)C)nc12 [C69, 6-[8-(1,3-dimethyl-1H-pyrazol-4-yl)-[1,2,4]triazolo[1,5-a]pyrazin-2-ylamino]-3,3-dimethyl-1,3-dihydro-indol-2-one]
3 to 50 | < 0.1 | CC1(C)C(=O)Nc2cc(Nc3nc4c(N5CCc6[nH]cnc6C5)nccn4n3)ccc21 [C103, 3,3-dimethyl-6-[8-(1,4,6,7-tetrahydro-imidazo[4,5-c]pyridin-5-yl)-[1,2,4]triazolo[1,5-a]pyrazin-2-ylamino]-1,3-dihydro-indol-2-one]
0.3 to 3 | 3 to 50 | Cn1cc(-c2nccn3nc(Nc4cccc(S(N)(=O)=O)c4)nc23)cn1 [C14, 3-[8-(1-Methyl-1H-pyrazol-4-yl)-[1,2,4]triazolo[1,5-a]pyrazin-2-ylamino]-benzenesulfonamide]
3 to 50 | 3 to 50 | COc1cccc(Nc2nc3c(-c4cnn(C)c4)nccn3n2)c1 [C8, (3-Methoxy-phenyl)-[8-(1-methyl-1H-pyrazol-4-yl)-[1,2,4]triazolo[1,5-a]pyrazin-2-yl]-amine]
3 to 50 | 0.3 to 3 | Cn1cc(-c2nccn3nc(Nc4ccc(S(C)(=O)=O)cc4)nc23)cn1 [C23, (4-Methanesulfonyl-phenyl)-[8-(1-methyl-1H-pyrazol-4-yl)-[1,2,4]triazolo[1,5-a]pyrazin-2-yl]-amine]
3 to 50 | 0.1 to 0.3 | Cn1nnc2ccc(Nc3nc4c(-c5ccccc5-c5ccccc5)nccn4n3)cc21 [C29]
3 to 50 | 0.3 to 3 | Cn1cc(-c2nccn3nc(Nc4ccc(S(N)(=O)=O)cc4)nc23)cn1 [C16, 4-[8-(1-Methyl-1H-pyrazol-4-yl)-[1,2,4]triazolo[1,5-a]pyrazin-2-ylamino]-benzenesulfonamide]
3 to 50 | < 0.1 | CC1(C)C(=O)Nc2cc(Nc3nc4c(N5CCC6(COC6)C5)nccn4n3)ccc21 [C81, 3,3-dimethyl-6-[8-(2-oxa-6-aza-spiro[3.4]oct-6-yl)-[1,2,4]triazolo[1,5-a]pyrazin-2-ylamino]-1,3-dihydro-indol-2-one]
0.3 to 3 | 0.1 to 0.3 | Cn1cc(-c2nccn3nc(Nc4ccc(C(C)(C)O)cc4)nc23)cn1 [C61, 2-{4-[8-(1-methyl-1H-pyrazol-4-yl)-[1,2,4]triazolo[1,5-a]pyrazin-2-ylamino]-phenyl}-propan-2-ol]
3 to 50 | 0.1 to 0.3 | CC(C)C1(C(C)C)OC(=O)Nc2cc(Nc3nc4c(-c5cnn(C)c5)nccn4n3)ccc21 [C119, 4,4-diisopropyl-7-[8-(1-methyl-1H-pyrazol-4-yl)-[1,2,4]triazolo[1,5-a]pyrazin-2-ylamino]-1,4-dihydro-benzo[d][1,3]oxazin-2-one]
3 to 50 | 0.3 to 3 | COc1cc(Nc2nc3c(N4CCC(N)CC4)nccn3n2)cc(OC)c1 [C50, [8-(4-amino-piperidin-1-yl)-[1,2,4]triazolo[1,5-a]pyrazin-2-yl]-(3,5-dimethoxy-phenyl)-amine]
3 to 50 | 0.3 to 3 | Cn1cc(-c2nccn3nc(Nc4cccc(N5CCOCC5)c4)nc23)cn1 [C18, [8-(1-Methyl-1H-pyrazol-4-yl)-[1,2,4]triazolo[1,5-a]pyrazin-2-yl]-(3-morpholin-4-yl-phenyl)-amine]
